Data reported in patent US20180228811A1, “GDNF INDUCTION FOR THE TREATMENT OF RETINAL DISORDERS” (THE SCHEPENS EYE RESEARCH INSTITUTE, INC., priority 2014, published 2018).
Values joined by “and” are separate entries in the source; they are usually repeats but may differ in a detail not shown here. Identical values can stand only once. “Also recorded” adds a separate entry of the source.

Tests used:
photoreceptors = assay: Photoreceptor rescue by Compound I suspension in rhodopsin knockout mice (H&E cell count); type: in vivo, mouse; details: rho-/- mice
Method: To study photoreceptor rescue by Compound I suspension (60 mg/ml), 2 ul of suspension (n=5) or Vehicle (n=5) were administered intravitreally to 4-week old rhodopsin knockout mice using a beveled glass needle, connected to a Hamilton syringe through polyethylene tubing. During the injection, corneal paracenthesis was performed to reduce intraocular pressure. 10 weeks after the injection, eyes were enucleated and fixed in Davidson solution for histological processing: paraffin embedding and sectioning. Six micron thick sections were cut in the area close to optic nerve head (ONH) and stained with hematoxylin-eosin (H&E) or processed for immunohistochemical analysis (IHC). H&E-stained sections were imaged (Olympus imaging system DP72) and total photoreceptor number was estimated based on the nuclei count in the outer nuclear layer (ONL). Cells were counted in each 100 um retina span starting from optic nerve head on three sections for each eye (five eyes per group). Total photoreceptor number per section was also calculated.

GDNF [1] = assay: GDNF induction in mouse eyecups differentiated from induced pluripotent stem cells (ELISA); type: cell-based
Method: GDNF induction […] was assessed using three retinal-specific cell systems: ARPE19, as a model for human retinal pigment epithelium; human retinal progenitor cells (hRPC), as a substitute for human retinal neurons/glia; and mouse eyecups, differentiated from induced pluripotent stem cells. ARPE19 cells are described in Dunn et al., Exp. Eye Res. 62: 155-169, 1996. To study GDNF induction in a human retinal pigment epithelium cell line, ARPE19, thawed ARPE19 cells (passage 33, ATCC) were plated on fibronectin (Akron)-coated plates (Nunc) in stimulation medium at a density of 10 k cells/sq.cm. The flasks were incubated at standard conditions: 37° C., 5% CO2, 100% humidity. Cells were plated 24 hours prior to Compound I treatment and were grown in Ultraculture medium (Lonza), supplemented with 1×MEM NEAA (Gibco), 1× L-glutamine (Gibco), 1× Antibiotic/antimycotic (Gibco), 2 ng/ml bFGF (Peprotech), 1 ng/ml EGF (Peprotech). […]
To study GDNF induction in retina-like tissue structures, mouse eyecups were differentiated from wild-type mouse induced pluripotent stem cells according to the protocol described previously (Eiraku, M. & Sasai, Y., Nat Protoc 7, 69-79 (2012)). […] The results of dose-dependent GDNF induction were analyzed by ANOVA (p<0.05).

GDNF [2] = assay: GDNF protein induction in ARPE19 cells (ELISA); type: cell-based, human
Method: (§1) GDNF induction […] was assessed using three retinal-specific cell systems: ARPE19, as a model for human retinal pigment epithelium; human retinal progenitor cells (hRPC), as a substitute for human retinal neurons/glia; and mouse eyecups, differentiated from induced pluripotent stem cells. ARPE19 cells are described in Dunn et al., Exp. Eye Res. 62: 155-169, 1996. To study GDNF induction in a human retinal pigment epithelium cell line, ARPE19, thawed ARPE19 cells (passage 33, ATCC) were plated on fibronectin (Akron)-coated plates (Nunc) in stimulation medium at a density of 10 k cells/sq.cm. The flasks were incubated at standard conditions: 37° C., 5% CO2, 100% humidity. Cells were plated 24 hours prior to Compound I treatment and were grown in Ultraculture medium (Lonza), supplemented with 1×MEM NEAA (Gibco), 1× L-glutamine (Gibco), 1× Antibiotic/antimycotic (Gibco), 2 ng/ml bFGF (Peprotech), 1 ng/ml EGF (Peprotech). For qPCR analysis, the experiments were performed in 35 mm Petri dishes in 2 ml of medium with Compound I concentration of 100 nM (DMSO-based solution). Total mRNA was isolated at 0, 15, 30, 60, 120, 240 minutes post stimulation. For protein expression determination by ELISA, the experiments were performed in 96 well plates in 100 ul of medium with each condition (concentrations ranging from 0 to 10 uM) reproduced in 3 wells. For ELISA analysis, plates were removed from out of incubator 24 hours post stimulation and freeze-thawed followed by CHAPS lysis buffer treatment for total mRNA extraction. The ELISA analysis for GDNF was performed using GDNF DuoSet kit (R&D systems) using manufacturer's instructions.

[3] = Pharmacokinetic studies of Compound I sustained release formulation (suspension) in wild-type mice; type: in vivo, mouse; details: for Compound I content in the collected vitreoretinal samples / Compound I concentration in the vitreoretinal sample: 2 ul of 60 mg/ml suspension intravitreally; for total Compound I content per eye: suspension intravitreally
Method: To profile pharmacokinetics of Compound I after single intravitreal injection, 2 ul of Compound I suspension (60 mg/ml) were administered intravitreally to 3 week old wild-type (C57/Bl6) mice in the same way as described above for the solution. A beveled glass needle connected to a Hamilton syringe through polyethylene tubing was used. During the injection, corneal paracenthesis was performed to reduce intraocular pressure.
For enucleation animals were euthanized at several timepoints after injection: 1 hour (n=5), 1 day (n=3), 2 days (n=3), 7 days (n=3) and 14 days (n=3). The eyes were enucleated and placed in chilled phosphate-buffered saline and kept on ice. The eyes were dissected within 30 minutes post-enucleation: total retina and vitreous were collected into pre-weighed tubes, weighted and snap frozen. For Compound I content in the eye analysis retina and vitreous humor samples were diluted in 0.1% formic acid in 90:10 (v:v) acetonitrile:water before being analyzed for Compound I using an analytical method based on protein precipitation, followed by HPLC/MS/MS analysis. Using a 25 μL aliquot of sample, the lower limit of quantification (LLQ) for Compound I was 1.00 ng/mL. The computer systems that were used on this study to acquire and quantify data included Analyst Version 1.6.1 and SMS2000 version 2.3. The results were analyzed by ANOVA (p<0.05).

GDNF mRNA = GDNF mRNA time-course in ARPE19 cells (qPCR); type: cell-based, human; details: ARPE19, 100 nM Compound I, normalized by GAPDH and ßActin
Method: as §1, with “For ELISA analysis, plates were removed from out of incubator 24 hours post stimulation and freeze-thawed followed by CHAPS lysis buffer treatment for total mRNA extraction. The ELISA analysis for GDNF was performed using GDNF DuoSet kit (R&D systems) using manufacturer's instructions.” left out

[4] = wt mice, 14 days post injection

COc1cc2c(cc1S(=O)(=O)c1ccc(OCc3ccc(Cl)cc3)cc1)CCN(C)CC2 [Compound I, 7-[4-(4-chloro-benzyloxy)-benzenesulfonyl]-8-methoxy-3-methyl-2,3,4,5-tetrahydro-1H-3-benzazepine]
increase in photoreceptor cell number pan-retinally compared to uninjected and vehicle (photoreceptors; 2 ul of 60 mg/ml suspension intravitreally at 4 weeks of age, 10 weeks after injection): 2 fold and 2.1 fold | total photoreceptor cells per section (photoreceptors; suspension, 10 weeks after injection, uninjected 516, vehicle 508): 1210 cells per section | retinal pigment epithelium, inner nuclear and ganglion cell layers, histology (photoreceptors; suspension, 10 weeks after the treatment): no changes in the retinal pigment epithelium, inner nuclear or ganglion cell layers | increase in photoreceptor cell number in the area close to the optic nerve head (ONH) (photoreceptors; suspension, 200 micron area): 1.5 fold | outer nuclear layer (ONL), histology (photoreceptors; suspension, compared to vehicle-treated and untreated eyes): preserved; also recorded: significant increase in ONL thickness | photoreceptors per 200 um close to the ONH (photoreceptors; suspension, non-treated 46, vehicle control 39): 63 photoreceptors per 200 um | GDNF induction (GDNF [1]): More than 2 fold | GDNF induction, result in words (GDNF [1]; 0 to 10 uM): Significant dose-dependent GDNF induction | GDNF induction (GDNF [2]; ARPE19): More than 2 fold | GDNF induction, result in words (GDNF [2]; ARPE19, 0 to 10 uM): Significant dose-dependent GDNF induction | concentration of Compound I at which GDNF was upregulated (GDNF [2]; ARPE19, ELISA, FIG. 1C): 3 µM | increase of GDNF protein levels in vitro (GDNF [2]; in vitro, cell system not stated (mRNA was measured in ARPE19 only)): 1.8 fold | time drug may be present according to modeling ([3]; single 2 ul intravitreal injection of suspension, modeling): up to 4 weeks | Compound I content in the collected vitreoretinal samples ([3]; wt mice, 1 hour post-injection): 21 ug per milligram of tissue | Compound I concentration in the vitreoretinal sample ([3]; wt mice, 14 days): 5 mg/g tissue | Compound I content in the collected vitreoretinal samples [3, 4]: 5 ug per milligram of tissue | Compound I concentration in the vitreoretinal sample ([3]; wt mice, start of time course (1 hour)): 20 mg/g tissue | time the compound remained in the eye after single intravitreal injection ([3]; wt mice, single 2 ul injection of suspension): at least 2 weeks | total Compound I content per eye ([3]; wt mice, 1 hour post-injection): 80 µg | total Compound I content per eye [3, 4]: 28 µg | time of GDNF mRNA peak after stimulation (GDNF mRNA): 30 min
